# Earlier results, collected in paper PMC9088311, “Cyclic Thiosulfonates for Thiol-Mediated Uptake: Cascade Exchangers, Transporters, Inhibitors” (JACS Au, 2022).
# Tested on: lentivirus with D614G SC2 spike protein, A549 cells overexpressing ACE2 and TMPRSS2
# Conditions: 50 μM; cited from earlier work
structure (smiles),measurement,value
"O=S1(=O)C[C@H](O)[C@H](O)CS1 (stereo in doubt) [Compound 3, (4S,5R)-4,5-dihydroxy-1,2-dithiane-1,1-dioxide]","inhibition of luciferase expression, thus SC2 lentivector entry",≈ 60%
